Measurements published in patent publication US12378249B2, “Isoquinoline compounds and uses thereof” (Genentech, Inc., priority 2018, dated 2025).

What was measured:
[1] = test system: primary human pan T cells; assay: Human T-cell IL2 Induction Assay; type: cell-based; conditions: anti-CD3/anti-CD28 stimulated, 4 hours
Protocol: Example B3: Human T-cell IL2 Induction Assay
Anti-CD3 and anti-CD28 activates TCR signaling in primary human pan T cells leading to IL-2 promoter induction. Secreted IL-2 in cell culture supernatant is detected by electrochemiluminescence using a capture antibody against IL-2 and an anti-IL-2 antibody labeled with SULFO-tag.
See www.mesoscale.com for additional electrochemiluminescence technology information.
Incubate primary human pan T cells with varying concentrations of test compounds for 30 minutes in a humidified incubator at 37° C. and 5% CO2. Transfer cells to a plate pre-coated with a fixed concentration of anti-human CD3 (determined separately for each donor lot) and add soluble anti-human CD28 (final concentration=1 μg/ml). Stimulate cells in a humidified incubator at 37° C. and 5% CO2 for 4 hours. Transfer 25 μl of supernatant to a MSD single spot plate pre-coated with an anti-human IL-2 antibody. Incubate MSD plate overnight at 4° C. with gentle shaking. Wash MSD plate 4× with wash buffer. Add SULFO-tagged detection antibody at a 1:50 dilution and incubate at room temperature shaking for 2 hours. Wash MSD plate 4× with wash buffer and add 150 μl 2×MSD read buffer. Read on an MSD instrument. Normalize data to stimulated/untreated controls to calculate % activity at each concentration of compound.
• Frozen Primary Human Pan-T Cells (StemCell Technologies #70024) • anti-human CD3 (OKT3 clone) (eBioscience #16-0037-81) • anti-human CD28 (CD28.2 clone) (BD #555725) • 96-well Human IL-2 tissue culture kit (MSD #K151AHB-4) Instrumentation: • Biomek FX for liquid handling (Beckman Coulter) • MSD SECTOR S 600 (Meso Scale Discovery)
Exemplary compounds of Formula (I) were tested in the human T-cell IL-2 induction assays. The % increase measured for IL-2 in cells treated by the test compounds relative to untreated cells are provided in Table B2 for certain compounds.

HPK1 [2] = molecular target: HPK1 (Homo sapiens (Human), UniProt Q92918, S171E/T165E); assay: HPK1-FL HTRF Enzymatic Assay (HTRF); type: biochemical; conditions: HPK full length T165E S171E 0.125 nM, ATP 1 mM, Biotin-SLP76 100 nM, read-out: HPK1 Ki (nM), H = HTRF
Chain of HPK1 (Homo sapiens (Human), UniProt Q92918, S171E/T165E) (Q92918 whole entry T165E/S171E): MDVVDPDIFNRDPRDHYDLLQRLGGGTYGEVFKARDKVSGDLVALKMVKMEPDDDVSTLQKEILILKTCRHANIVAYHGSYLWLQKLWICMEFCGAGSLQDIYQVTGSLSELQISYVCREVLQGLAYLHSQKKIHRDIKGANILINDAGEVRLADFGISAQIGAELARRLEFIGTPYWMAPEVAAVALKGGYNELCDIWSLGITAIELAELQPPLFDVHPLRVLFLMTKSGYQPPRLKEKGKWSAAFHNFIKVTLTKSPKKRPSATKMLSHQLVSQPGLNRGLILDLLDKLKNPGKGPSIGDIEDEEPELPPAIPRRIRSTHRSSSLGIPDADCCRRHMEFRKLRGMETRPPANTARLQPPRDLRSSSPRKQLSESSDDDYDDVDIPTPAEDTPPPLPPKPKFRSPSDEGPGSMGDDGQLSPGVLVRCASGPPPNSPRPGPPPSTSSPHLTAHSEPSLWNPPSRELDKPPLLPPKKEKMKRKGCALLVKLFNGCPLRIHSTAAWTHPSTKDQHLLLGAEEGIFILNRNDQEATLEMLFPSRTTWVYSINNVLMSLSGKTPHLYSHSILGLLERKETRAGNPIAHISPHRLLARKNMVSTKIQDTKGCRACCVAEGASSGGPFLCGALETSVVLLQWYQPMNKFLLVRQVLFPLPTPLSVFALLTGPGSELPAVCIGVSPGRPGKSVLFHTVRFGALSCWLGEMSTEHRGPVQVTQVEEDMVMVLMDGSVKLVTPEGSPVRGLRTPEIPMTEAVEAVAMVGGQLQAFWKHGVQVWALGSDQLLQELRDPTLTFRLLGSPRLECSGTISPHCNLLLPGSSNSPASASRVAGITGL
Method in brief: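 Full-length HPK1 double mutant, preincubated 30 min with compound, then phosphorylates Biotin-SLP-76 at 1 mM ATP for 60 min in HEPES pH 7.5/MgCl2/TCEP/Brij-35 buffer. Phospho-product detected by TR-FRET (Eu-anti-pSLP76, SA-XL665) after 60 min; 665/620 ratio gives % activity, from which Ki is determined.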

HPK1 [3] = molecular target: HPK1 (Homo sapiens (Human), UniProt Q92918); assay: HPK1 Lantha Binding Assay (Lanth); conditions: 2 nM HPK1, 15 nM Tracer222, Morrison Ki fit, read-out: HPK1 Ki (nM), L = Lanth
Chain of HPK1 (Homo sapiens (Human), UniProt Q92918) (Q92918 1-346): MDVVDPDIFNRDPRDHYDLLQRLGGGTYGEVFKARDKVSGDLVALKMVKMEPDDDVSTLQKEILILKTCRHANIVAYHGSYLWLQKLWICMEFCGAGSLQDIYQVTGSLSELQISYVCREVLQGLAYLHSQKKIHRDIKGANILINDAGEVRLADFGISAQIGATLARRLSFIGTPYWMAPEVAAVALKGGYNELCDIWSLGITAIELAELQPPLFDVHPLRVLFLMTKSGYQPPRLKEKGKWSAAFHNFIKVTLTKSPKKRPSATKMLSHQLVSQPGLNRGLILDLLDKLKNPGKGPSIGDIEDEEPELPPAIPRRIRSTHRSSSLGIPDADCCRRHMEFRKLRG
Protocol: Example B2: HPK1 Lantha Binding Assay (“Lanth”)
Procedure: I. Compound Dilution:
The compounds to be tested were diluted by preparing 12.5 uL/well of 5 mM compound (100×) in columns 2 and 13 and 10 ul/well of DMSO in columns 3-12, 14-23, and wells A1-H1 and I24-P24 of the compound plate using a Bravo liquid handling platform. For the reference compound, the top concentration was 1 mM. To the plate was added 10 ul 2 mM staurosporine in wells J1-P1 and A24-H24. A 11 point 5-fold compound serial dilution was performed using the Bravo liquid handling platform. From the plate were transferred 2.5 ul of the solutions from column 2 and column 13 to the 10 ul of DMSO in columns 3 and 14 & so on. The compound plate was centrifuged at 2500 rpm for 1 min. From the compound plate was transferred 80 nl of the compounds into an assay plate using the Echo liquid handler system. One compound plate makes two assay plates. Each assay plate is sealed and stored in an N2 cabinet.
The following assay concentrations and times were used: 2 nM HPK1, 2 nM Eu-Anti-GST Ab, and 15 nM Tracer222, with 60 min incubation time.
III. HPK Lantha Binding Assay:
For the binding assay, 4 ul 2X HPK1 and Eu-anti-GST antibody were added to each well of the assay plate using a Multidrop reagent dispenser. The solutions were incubated in a 23 C incubator for 1 h. To each well of the assay plate was added 4 ul 2× Tracer-222 using a Multidrop reagent dispenser. The solutions were again incubated in a 23 C incubator for 1 h. The results of the assay were read using an Envision plate reader with the following parameters:TR_FRET, 340ex/615 and 665em; 100 usec Delay; and 200 usec integration.
Compound Ki was analyzed using Morrison ki fit model in XL-fit • a. fit=(1-((((E+x)+(Ki*(1+(S/Kd))))−(((((E+x)+(Ki*(1+(S/Kd))))^2)−((4*E)*x))^0.5))/(2*E))) • res=(y-fit) • b. Parameters: • E=enzyme concentration • S=Tracer222 concentration, Kd=Tracer222 Kd • All measurements reported using the same units (uM)
Exemplary compounds were tested in the binding assays.

| Structure (SMILES) | % IL-2 increase relative to untreated cells ([1]; assayed concentration 0.31 μM) [%] | Ki (HPK1 [2]) [nM] | % IL-2 increase relative to untreated cells ([1]; assayed concentration 0.10 μM) [%] | Ki (HPK1 [3]) [nM] |
| --- | --- | --- | --- | --- |
| Cc1c(N)cncc1-c1cc2cc(Nc3cc4n(n3)Cc3nncn3CC4)ncc2cc1F [Compound 139, N-(6-(5-amino-4-methylpyridin-3-yl)-7-fluoroisoquinolin-3-yl)-5,6-dihydro-11H-pyrazolo[1,5-d][1,2,4]triazolo[4,3-a][1,4]diazepin-8-amine] | 154 | 0.076 | – | – |
| Cc1c(N)cncc1-c1cc2cc(Nc3cc4n(n3)CC(=O)N(C(C)C)CC4)ncc2c(F)c1F [Compound 118, 2-((6-(5-amino-4-methylpyridin-3-yl)-7,8-difluoroisoquinolin-3-yl)amino)-6-isopropyl-5,6-dihydro-4H-pyrazolo[1,5-d][1,4]diazepin-7(8H)-one] | 400 | 0.065 | – | – |
| Cc1c(N)cncc1-c1cc2cc(Nc3cc4n(n3)CC(=O)N(C(C)C)CC4)ncc2c(C)c1C#N [Compound 130, 6-(5-amino-4-methyl-3-pyridyl)-3-[(6-isopropyl-7-oxo-5,8-dihydro-4H-pyrazolo[1,5-d][1,4]diazepin-2-yl)amino]-8-methyl-isoquinoline-7-carbonitrile] | – | 0.068 | 308 | – |
| Cc1ccnc(Nc2cc3cc(-c4cnccc4C)ccc3cn2)c1 [Compound 108, N-(4-methylpyridin-2-yl)-6-(4-methylpyridin-3-yl)isoquinolin-3-amine] | – | – | – | 4.4 |
| Cc1ccncc1-c1ccc2cnc(Nc3cc(C(F)F)ccn3)cc2c1 [Compound 106, N-(4-(difluoromethyl)pyridin-2-yl)-6-(4-methylpyridin-3-yl)isoquinolin-3-amine] | – | – | – | 6.6 |
| Cc1cc(Nc2cc3cc(-c4cnccc4C)ccc3cn2)ncn1 [Compound 107, 6-(4-methylpyridin-3-yl)-N-(6-methylpyrimidin-4-yl)isoquinolin-3-amine] | – | – | – | 9 |
| Cc1c(-c2cc3cc(Nc4cc5n(n4)CC(=O)N(C(C)C)C[C@@H]5O)ncc3cc2F)cnc2c1NCCO2 [Compound 141b, (S)-2-((7-fluoro-6-(8-methyl-2,3-dihydro-1H-pyrido[2,3-b][1,4]oxazin-7-yl)isoquinolin-3-yl)amino)-4-hydroxy-6-isopropyl-5,6-dihydro-4H-pyrazolo[1,5-d][1,4]diazepin-7(8H)-one] | 350 | – | – | – |
| Cc1c(N)cncc1-c1cc2cc(Nc3cc4n(n3)CC(=O)N(C(C)C)CC4)ncc2cc1F [Compound 119, 2-((6-(5-amino-4-methylpyridin-3-yl)-7-fluoroisoquinolin-3-yl)amino)-6-isopropyl-5,6-dihydro-4H-pyrazolo[1,5-d][1,4]diazepin-7(8H)-one] | – | 0.05 | 542 | – |
| Clc1cccc(Cl)c1-c1ccc2cnc(Nc3cnn(C4CCOC4)c3)cc2c1 (racemic) [Compound 103, (+/-)-6-(2,6-dichlorophenyl)-N-(1-(tetrahydrofuran-3-yl)-1H-pyrazol-4-yl)isoquinolin-3-amine] | – | – | – | 180 |
| Cc1c(N)cncc1-c1cc2cc(Nc3cc4n(n3)CC(=O)N(C(C)C)CC4)ncc2cc1Cl [Compound 140, 2-((6-(5-amino-4-methylpyridin-3-yl)-7-chloroisoquinolin-3-yl)amino)-6-isopropyl-5,6-dihydro-4H-pyrazolo[1,5-d][1,4]diazepin-7(8H)-one] | – | 0.086 | 304 | – |
| CN1CCC(Cn2cc(Nc3cc4cc(-c5c(Cl)cccc5Cl)ccc4cn3)cn2)C1 (racemic) [Compound 102, (+/-)-6-(2,6-dichlorophenyl)-N-(1-((1-methylpyrrolidin-3-yl)methyl)-1H-pyrazol-4-yl)isoquinolin-3-amine] | – | – | – | 68 |
